In test [1] the test system is Staphylococcus epidermidis DSM1798. The test is described as follows: static biofilm assay on antimicrobially finished silicone surfaces (cfu/cm^2). Format: cell-based. Conditions: silicone surface, conjugates adsorbed alone from 10 mg/ml (P18 equivalents) in PBS; after washing. The procedure:
(§1) The effect of the antimicrobial finishing of the investigated surfaces was determined by means of a […] biofilm assay. For this, the surfaces to be tested were cut into round disks which fit into the holes of 24-well microtiter plates. In order to prevent the surfaces from slipping during the assay, the surfaces were immobilized on the bottom of the microtiter plates with the help of glass joint grease. The formation of biofilms was carried out starting from a preculture. For this, 20 ml of the standard commercial TSBY medium (Difco Laboratories, MI, USA) were inoculated with the help of a steady-state overnight culture of Staphylococcus epidermidis DSM1798, Escherichia coli DSM 5698, Proteus mirabilis DSM 4479 or Escherichia coli BL21 (DE3) with an optical density of 0.1. The preculture was incubated for 2 to 4 hours with agitation (at 200 rpm) and 37° C. until an optical density of from 2 to 3 was reached. In order to start the biofilm assay, the preculture was diluted to an optical density of 0.0004 in 5% TSBY in saline (0.9% NaCl) (ca. 10^5 cfu/ml). 1 ml of this was placed onto the surfaces in the 24-well plate and then incubated at 37° C. with gentle vibration at 50 rpm (revolutions per minute), so that a biofilm could form on the surface. The biofilm on the surfaces was analyzed after one hour (1 h) and after 24 hours (24 h) (and optionally 5 hours). For this, the planktonic cells were removed. The surfaces were then removed from the microtiter plate and briefly washed in sodium chloride solution, saline (0.9% NaCl). The adherent cells in the biofilm were then detached from the surface by means of an ultrasound treatment. For this purpose, the surfaces were transferred to a Falcon tube (50 ml volume) with 2 ml of saline and subjected to ultrasound for five minutes in an ultrasound water bath. The resulting bacterial suspension was diluted and plated out on TSBY agar plates. After 18 hours at 37, the resulting colonies were counted and back-calculated to the number of cells on the surface.

For the next test, the system named is Escherichia coli. Described as above. Format: cell-based. Conditions: silicone surface, after intensive washing. The procedure:
as §1

Where no end group is shown, it is not given here.

In the case of “PEI-P18 conjugates: polyethyleneimine (25 KDa) activated with SMCC and reacted with P18cys (KWKLFKKIPKFLHLAKKFC; SEQ ID NO: 27) (also: conjugated to polyethyleneimine (25 kDa) via SMCC)”, the “formation of a biofilm due to S. epidermidis” value in test [1] was “able to prevent the formation of a biofilm”. For the same substance, the “biofilm formation by E. coli” value in the test with Escherichia coli (conjugates adsorbed alone from 10 mg/ml (P18 equivalents) in PBS) is recorded as “not retained on the surface so strongly that after intensive washing enough active ingredient is present to prevent biofilm formation”; with Escherichia coli (two-step method: hydrophobin A coating (0.5 mg/ml), then conjugates 10 mg/ml (P18 equivalents) in PBS), “effective even after intensive washing”.

For the origin of these results see patent publication US20120094007A1, “METHOD FOR THE IMMOBILIZATION OF CATIONIC ACTIVE INGREDIENTS ON SURFACES” (BASF SE, priority 2010, published 2012).
